Article PMC6891289 (Molecules, 2019)
Read-outs that look alike come from different tables or passages of the source.

How the values were obtained:
[1] = molecular target: T1, acetylcholinesterase from Electrophorus electricus (electric eel) (type VI-S) (Electrophorus electricus, UniProt O42275); experiment: Ellman assay, […] nm, 4PL fit; format: biochemical
T1 construct: gene ache; commercial native enzyme from Sigma, type VI-S lyophilized powder

[2] = molecular target: T1, acetylcholinesterase from Electrophorus electricus (electric eel) (type VI-S); experiment: Ellman assay, […] nm, Michaelis-Menten fit; format: biochemical; details: no inhibitor, 0.1 to 1.6 mM substrate, phosphate buffer pH 8, 37 °C
[3] = read-out: no inhibition up to 50 μg/mL

T1 sequence (O42275 24-633): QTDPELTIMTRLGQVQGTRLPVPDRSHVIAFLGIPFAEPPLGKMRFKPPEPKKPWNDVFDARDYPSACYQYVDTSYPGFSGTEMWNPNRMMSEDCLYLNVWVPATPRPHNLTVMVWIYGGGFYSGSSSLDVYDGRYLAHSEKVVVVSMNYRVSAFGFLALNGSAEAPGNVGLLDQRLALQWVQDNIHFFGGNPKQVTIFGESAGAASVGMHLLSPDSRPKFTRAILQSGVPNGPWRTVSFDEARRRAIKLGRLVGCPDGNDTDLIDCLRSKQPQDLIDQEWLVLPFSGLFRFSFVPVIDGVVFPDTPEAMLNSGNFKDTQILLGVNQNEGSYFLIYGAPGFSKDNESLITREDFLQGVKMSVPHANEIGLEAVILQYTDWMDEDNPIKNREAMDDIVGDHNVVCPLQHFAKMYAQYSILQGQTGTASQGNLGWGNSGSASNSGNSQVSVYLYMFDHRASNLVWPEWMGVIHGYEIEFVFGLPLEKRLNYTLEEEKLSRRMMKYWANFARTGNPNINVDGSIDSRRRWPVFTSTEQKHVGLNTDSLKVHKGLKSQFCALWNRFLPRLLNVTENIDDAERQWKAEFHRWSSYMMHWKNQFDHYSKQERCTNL

SMILES	IC50 [1, 3]	IC50 ([1]; read-out: IC50)	further results
COc1cc(C(=O)O)ccc1O [vanillic acid]	> 297 µM	–	–
COc1cc(/C=C/C(=O)O)ccc1O [ferulic acid]	> 257 µM	–	–
O=C(O)c1cc(O)c(O)c(O)c1 [gallic acid]	–	46.4 µM	–
CC(=O)SCC[N+](C)(C)C [Acetylthiocholine chloride]	–	–	Km [2]: 330 µM
COc1ccc2cc3[n+](cc2c1OC)CCc1cc2c(cc1-3)OCO2 [berberine]	–	2.8 µM	–
